Data: patent publication US20230000888A1, “NAD-PRECURSORS AND DIETARY RESTRICTION FOR TREATING AGE RELATED MEDICAL CONDITIONS” (Leibniz-Institut für Alternsforschung - …, priority 2019, published 2023)
“Also recorded” adds a separate entry of the source. Structures can show the parent of a compound that is named as a salt.

Legend:
[1] = tested on: stress response genes in MPPs (CD34+Flt3−LSK); experiment: NanoString analysis of stress response genes in MPPs pre-treated in vitro with NR followed by 3I or vehicle; assay type: cell-based, mice
Experimental: (C,D) NanoString analysis on the expression of stress response genes was carried out on 10,000 MPPs (CD34^+Flt3^−LSK) from young (3-4 months, n=4) and old mice (22-24 months, n=4). MPPs were pre-treated in culture with 1 mM NR or DMSO (Con) for 12h followed by treatment with 31 or Vehicle (Veh: 0.4% DMSO) for 12h under continuation of NR or Veh treatment. (C,D) Volcano plots for the NanoString analysis.
(G,H) NanoString analysis on the expression of stress response genes was carried out on 10,000 MPPs (CD34^+Flt3^−LSK) from young (3-4 months, n=4) and old mice (22-24 months, n=4). MPPs were pre-treated in vitro with 1 mM NR or DMSO (Con) for 12h followed by treatment with 31 or Vehicle (Veh: 0.4% DMSO) for 12h. The NR treatment was continued for the time window of 12-24h. (G, H) Volcano plots on the NanoString analysis of stress response genes.
(§1) To test the hypothesis that NAD(P) availability limits the potential of HSPCs from old mice to respond to changes in nutrient availability, freshly isolated HSCs from young and old mice were exposed to inhibitors of mitochondrial nutrient uptake.
Measuring of RNA expression by NanoString was done according to our previous publication (Chen et al., 2019) and according to manufacturer protocol (NanoString technologies). In brief, 1×10^4 cells were lysed in 2 μL of lysis/binding solution (Applied Biosystems, 8500G14). The cell lysate was then used for hybridization reaction as following: 2 μL of cell lysate was mixed with 5 μL of nCounter hybridization buffer (NanoString), 2 μL of Core Tagset, 2 μL of extension Tagset, 0.5 μL of […] Probe A working pool, 0.5 μL of […] probe A extension Pool, 0.5 μL of 3 nm Probe B working pool, and 0.5 μL of 3 nM Probe B extension pool (from IDT technologies). 2 μL of Nuclease-free water was added to each reaction to reach a final volume of 15 μL. The reaction mixture was prepared in Strip tubes (from NanoString technologies). Then it was incubated at 67° C. using thermal cycler (Masterycler from Eppendorf) for 16 h. Afterward, the Nanostring chemistry was processed automatically using nCounter prep-station 5s (NanoString technologies) according to manufacturer protocol. Directly after the run, the nCounter Cartridge was loaded into nCounter digital analyzer 5s (NanoString technologies). For NanoString analysis on young and old mice exposed to DR or AL food, freshly FACS-Sorted MPPs (CD34^+Flt3^− LSK) were used. […] Cells from NR treatment and DMSO were divided into 2 halves and further treated with 3I (6 μM each) or DMSO as control. The cells were harvested for NanoString analysis as described above. Data analysis was done after background correction using nSolver advanced analysis software (v.4) and (R software v 3.3.2.). The following housekeeping genes were used for normalization: ActB, B2M, Gapdh, Gusb, Hprt, PGK1, Polr1b, Polr2a, Ppia, Rpl19, Sdha, and Tbp. Heatmaps and volcano plots was done using GraphPad prism software version 8.

HSCs = experiment: HSC culture with NR pre-treatment followed by 3I, number of CD48−Sca1+ cells; assay type: cell-based; details: NR-treated (1 mM) HSCs from old mice; 3I 6 μM each; FIG. 12E
Description: The NR treatment was continued on das 3 and 4. […] N=3 HSC cultures derived from 3 individual mice per group. […] Error bars depict SD.
as §1
For testing the response of HSPCs to the blocking of glycolysis or mitochondrial ATP synthesis, 2-DG (Sigma, D8375) or oligomycin A (Sigma, 75351) were used. For the inhibition of nutrient uptake into mitochondria, three inhibitors (3I) were used. BPTES (Sigma, SML0601) blocks […] uptake, Etomoxir (Sigma E1905) blocks Fatty acids uptake, and UK5099 (Sigma PZ0160) blocks pyruvate uptake. The final concentration of each inhibitor in the culture medium is 6 μM. Same amount of DMSO was used in the medium as control. For determination of cell number after NR treatment 500 HSCs from young (2-3 months) and old (22-24 months) were pre-incubated either with 1 mM NR (provided by Prof. Johan Auwerx Lab) or DMSO as control for 2 days followed by 2 days treatment with the inhibitors (BPTES, Etomoxir and UK5099, 6 μM each) or same amount of DMSO as control. The cells were then analyzed by BD LSR fortessa.

old mice = details: previous studies; cited from earlier work
HSCs (CD150+CD34−LSK) = experiment: Competitive transplantation of HSCs from dietary cohorts, repopulation capacity (peripheral blood chimerism); assay type: in vivo; details: HSCs from young mice; 2 weeks intervention; FIG. 14A
[2] = tested on: 22-24 months old female mice; experiment: Lifespan (Kaplan Meier survival) of old mice under long-term dietary treatments; assay type: in vivo
Experimental: (B) Kaplan Meier survival analysis in cohorts of mice that were exposed to DR-alone, NR-alone, or NR/DR co-treatment compared to AL-feeding. Dietary interventions were started at the age of 22-24 months and continued over lifetime. […] P-values were calculated using Mantel-Cox test. The p-values that are shown next to the intervention naming refer to the comparison of the intervention to the AL-diet group.
To test effects of these dietary intervention on organism lifespan, 4 cohorts of 22-24 months old female mice (n=14-15 mice per group) were exposed to long-term treatments (until the end of life or the occurrence of humane endpoints).

CMPs [3] = experiment: Respirometry (OCR) of freshly isolated CMPs from mice fed NR, DR or NR/DR; assay type: in vivo; details: 2 weeks
Description: (§2) FIG. 13 (A-J) Young (2-3 month old) and old (22-24 month old) mice were exposed for 2 weeks to the indicated diet: ad libitum diet (AL), dietary restriction (DR=CRD), NAD-precursor supplementation (=NR), NR/DR—combination of NR plus DR.
(A-C) Respirometry analysis of the OCR of freshly-isolated CMPs in: (A) young and (B) old mice; (C) Quantification of OCR at basal level of the indicated groups as measured in (A,B, before oligomycin-application, marked by 0). N=4-6 mice per group. The Data were normally distributed (Shapiro-Wilk test) after log transformation. Error bars represent SD. P-values were calculated on average data of 4 time points using 2-way ANOVA with Tukey's multiple comparisons test on log-transformed data.
To experimentally test whether mitochondrial enhancement could re-empower DR (=CRD) in old mice, young and old mice were exposed to NAD+ supplementation by feeding of nicotinamide riboside (NR). In addition, the mice were exposed for 2 weeks to DR (=CRD), starting 1 week after NR pre-feeding, or continuous AL feeding.

CMPs [4] = experiment: Seahorse basal oxygen consumption rate after NR pre-treatment followed by 3I; assay type: cell-based, mice; details: FIG. 12F
Experimental: (F) Basal oxygen consumption rate in CMPs from young (3-5 months, n=4) and old mice (22-24 months, n=4). Cells were either pretreated with 1 mM […] (NR) or DMSO (Con) for 12 h. This was followed by treatment for 12h in vitro to combination of 3 inhibitors of mitochondrial nutrient uptake (by BPTES=6 uM, Etomoxir=6 uM, UK5099=6 uM) or DMSO as control. The data were not normally distributed (Shapiro-Wilk test) and the Mann-Whitney test was used for the calculation of p-values.
as §1
For CMP and GMP 80,000 cells were used. For MPP 60,000 cells were used.

[5] = tested on: stress response genes in HSCs; experiment: NanoString mRNA analysis of stress response genes in freshly isolated HSCs from dietary cohorts; assay type: in vivo, mice; details: 2 weeks, listed as NR-alone
Description: as §2
(G-K) NanoString mRNA analysis of stress response genes in freshly-isolated HSCs from young (Y) and old (O) mice that were exposed to ad libitum (AL) or dietary restriction (DR diet for 2 weeks) of NAD-precursor treatment (NR) or a combination of NR plus DR (=NR/DR). The dotted lines represent the q-value of 0.05.
To analyze whether the NR/DR-mediated re-installment of mitochondrial metabolic plasticity in HSCs from old mice could rescue the induction of metabolic stress signals, freshly isolated HSCs from 2-week dietary cohorts were analyzed with the same NanoString assay as described above.
Measuring of RNA expression by NanoString was done according to our previous publication (Chen et al., 2019) and according to manufacturer protocol (NanoString technologies). In brief, 1×10^4 cells were lysed in 2 μL of lysis/binding solution (Applied Biosystems, 8500G14). […]

CMPs [6] = experiment: OCR of CMPs in glucose-restricted medium from old mice fed CRMs with or without NAD-precursor; assay type: in vivo; details: old mice (22-24 months), 2 weeks, glucose depletion, FIG. 15
Experimental: FIG. 15—Old (22-24 months old) mice were exposed for 2 weeks to the indicated diet: ad libitum (AL), Metformin (met), NAD-precursor (NR), NRM—combination of NR plus Metformin. Curves show respirometry analysis of the OCR of freshly isolated CMPs. The OCRs were continuously measured for 12h in freshly isolated CMPs grown in glucose-restricted medium (1 mM=R).
To test whether NAD precursor supplementation would cooperate with specific CRMs that mimic a certain sub-pathway induced by CRD, different classes of CRMs were employed. We tested the combined effects of NAD supplementation with • (a) Metformin—a CRM, which induces mitochondrial stress • (b) Pterostilbene—a CRM which induces Sirtuin-dependent stress responses including autophagy • (c) Spermidine—a CRM, which induces autophagy (ad ownstream target of sirtuins (see above)
Old mice (22-24 months) were fed with CRMs (a-c) with or without combination with NAD-precursor supplementation for 2 weeks before analysis. Freshly isolated hematopoietic cells (CMPs) were tested for a rescue in responsiveness to activate mitochondria in response to glucose depletion—a marker of metabolic improvement induced by CRD in young mice or by a combination of NAD precursor supplementation plus CRD in old mice. […]

female Drosophila = details: 400 μM, high-fat diet; cited from earlier work
[7] = Y.Con + 3I versus O.NR + 3I, MPPs, 12 h pre-treatment with NR

NC(=O)c1ccc[n+]([C@@H]2O[C@H](CO)[C@@H](O)[C@H]2O)c1 [NR, Nicotinamide riboside]
IDH1-mRNA LogZFC [1, 7]: −2.62
Ino1-mRNA LogZFC [1, 7]: −1.78
Myh9-mRNA LogZFC [1, 7]: −2.45
NRas-mRNA LogZFC [1, 7]: −2.16
Pds5A-mRNA LogZFC [1, 7]: −3.08
atp5a1-mRNA LogZFC [1, 7]: 1.11
unspliced XBP1-mRNA LogZFC [1, 7]: 2.56
changes in the transcription of stress response genes in old vs. young cells ([1]; cells exposed to 3I-treatment, 1 mM NR, FIG. 12H): reverted changes in the transcription of stress response genes
pre-existing, age-related changes in transcription of stress response genes ([1]; old vs. young cells not exposed to 3I-treatment, 1 mM NR, FIG. 11C-E): no significant effects
response to 3I-treatment: cell proliferation (HSCs): suppression of cell proliferation
increase in lifespan when applied to old mice (old mice): 6.9%
repopulation capacity of HSCs (HSCs (CD150+CD34−LSK)): increased the repopulation capacity
increase in median life expectancy compared to AL ([2]; late-life treatment of old mice, this study): 10%
lifespan compared to AL-fed control mice ([2]; treatment started at 22-24 months, continued over lifetime, FIG. 14B): slight increases in lifespan
mitochondrial respiration compared to AL-fed mice (CMPs [3]; old mice, FIG. 13B,C): neither of the single treatments was sufficient to induce mitochondrial respiration
mitochondrial respiration compared to AL-fed mice (CMPs [3]; young mice, FIG. 13A,C): significant increases in mitochondrial respiration
response to 3I-treatment: oxidative metabolism (CMPs [4]; NR-treated (1 mM) cells from old mice, 3I 6 uM each): reduction of oxidative metabolism
oxidative metabolism (basal oxygen consumption rate) (CMPs [4]; cells from old mice, 1 mM NR): rescued oxidative metabolism to a similar level as observed in HSCs from young mice
induction of metabolic stress signals (stress response genes) ([5]; HSCs from young mice, FIG. 13G): induction of health-promoting stress response genes in young mice; also recorded: induced metabolic stress signals
induction of metabolic stress signaling (stress response genes) ([5]; HSCs of old mice, FIG. 13I,K): neither of the single treatments, NR-alone (FIG. 13I) or DR-alone (FIG. 13J) was able to induce metabolic stress signaling

CN(C)C(=N)N=C(N)N [metformin, Metformin-Hydrochlorid, reference compound]
synergistic effects of NAD precursor supplementation combined with the CRM on inducing mitochondria activity (OCR) (CMPs [6]): synergistic effects on inducing mitochondria activity

Oc1ccc(C=Cc2cc(O)cc(O)c2)cc1 [resveratrol, Resveratrol]
extension of the lifespan (female Drosophila): 10%-15%
